Reference: US10428045B2, “Benzazepine compounds, conjugates, and uses thereof” (Silverback Therapeutics, Inc., priority 2017, dated 2019)

How the values were obtained:
Trop2+ MDA-MB-453 cells = experiment: Antigen dependent human monocyte activation in mouse model, TROP2+ tumor; format: in vivo; conditions: NOD SCID mice with TROP2+ tumor, 5-20 mg/kg intravenously, human monocytes injected intratumorally
Procedure: (§1) Human monocytes were prepared as described above. Trop2^+ MDA-MB-453 cells or Trop2^− MiaPaca2 were cultured by standard methods. A TLR8 benzazepine linker payload (LP) was prepared by attaching a MCC (N-maleimidomethyl]cyclohexane-1-carboxylate) linker in place of the mc-vc-PABA linker in Compound-Linker 2.1 to form Compound-Linker 2.22. TROP2-TLR8 benzazepine conjugates were prepared by conjugation of Compound-Linker 2.22 to a TROP2 antibody (sacituzumab) to form a conjugate with an average DAR of about 4.
(§2) On Day 1 NOD SCID mice were injected with 5×10^5 Trop2^+ MDA-MB-453 cells or Trop2-MiaPaca2 cells. Seven to ten days later when the tumor size reached about 300 mm^3, the mice were injected intraveneously with 5-20 mg/kg of the TROP2-TLR8 benzazepine conjugate or TROP2 antibody alone. Sixteen hours later, 10^6 human monocytes were injected intratumorally. Four to six hours later, the tumors were harvested and digested. Monocytes were identified by staining for cell surface markers and monocyte activation was determined by intracellular staining for IL-6.

Trop2− MiaPaca2 = experiment: Antigen dependent human monocyte activation in mouse model, TROP2− tumor; format: in vivo; conditions: NOD SCID mice with TROP2− tumor, 5-20 mg/kg intravenously, human monocytes injected intratumorally
Procedure: as §1, §2

## control antibody: "TROP2 antibody alone"; "a TROP2 antibody (sacituzumab)"
Trop2+ MDA-MB-453 cells
  human monocyte activation (intracellular staining for IL-6): did not cause human monocyte activation
Trop2− MiaPaca2
  human monocyte activation (intracellular staining for IL-6): did not cause human monocyte activation
